Data as given in paper PMC7911295, “Metabolism of Zearalenone in the Rumen of Dairy Cows with and without Application of a Zearalenone-Degrading Enzyme” (Toxins, 2021).
Read-outs that look alike come from different tables or passages of the source.

Tests used:
estrogen receptors = system: estrogen receptors; set-up: method as in doi:10.2903/j.efsa.2016.4425; conditions: cited from earlier work
[1] = Feeding trial in rumen-fistulated dairy cows: ZEN and ZEN metabolites in rumen fluid from reticulum, dorsal mat layer and ventral sac; type: in vivo, Holstein Friesian cows; conditions: for Traces still detected at (time after administration of ZEN-contaminated concentrate): time point 0 h of the ZEN+ZenA treatment; for Percentage of concentration relative to the sum of ZEN and ZEN metabolite concentrations: reticulorumen; for Time to elimination: ventral sac and reticulum; for Tmax: female, Holstein Friesian, bovine, in vivo, po, 5 mg, read-out: Time of peak concentration post-administration (converted)
Source text: (§1) Ruminal metabolism of ZEN with and without supplementation of ZenA was investigated in four rumen-fistulated Holstein Friesian cows (sex: female; age at start: 5.9 ± 1.0 years; body weight at start: 863 ± 65 kg; physiological stage: non-lactating; general health: good, non-gestating; identification procedure: ear tag 4-digit code). The cows were part of the dairy herd of VetFarm (Teaching and Research Farm) of the University of Veterinary Medicine Vienna in Kremesberg, Austria. All procedures related to these experiments were performed according to Austrian law and following the European Guidelines for the Care and Use of Animals for Research Purpose. The animal experiment was approved by ethics and animal welfare commission of the University of Veterinary Medicine, Vienna and the Austrian Federal Ministry of Education, Science and Research (68.205/0156-WF/V/3b/2017, 30.08.2017).
(§2) In our trial setup, each animal was considered an experimental unit (n = 4). Each animal received the same treatment and served as its own control. First, each animal received ZEN-contaminated concentrate feed. Following a 48-h washout period, each animal received ZEN-contaminated concentrate feed supplemented with ZenA. In brief, for acclimatization, on the day prior to the start of the feeding trial, each animal was manually fed 4 × 500 g of control concentrate (Table 4 and Table 5). Thereafter, animals were manually fed (i) 1 × 500 g concentrate contaminated with ZEN and 3 × 500 g control concentrate on experimental day 1 (ZEN treatment), (ii) 4 × 500 g control concentrate on day 2 (ZEN washout), (iii) 1 × 500 g ZEN-contaminated concentrate supplemented with ZenA and 3 × 500 g control concentrate on day 3 (ZEN+ZenA treatment), and (iv) 4 × 500 g control concentrate on day 4 (ZEN+ZenA washout; Table 6). Animals were treated and assessed in the same random order at each experimental time point.
For production of ZEN-contaminated concentrate feed, lyophilizate of ZEN with maltodextrin as a carrier was prepared. To this end, in three parallel preparations, 50 mg ZEN (Fermentek, Jerusalem, Israel) was dissolved in 1 L RO water (pH 12; adjusted with NaOH) using a magnetic stirrer set to 400 rpm and 37 °C for 20 min. Subsequently, 100 g maltodextrin DE19 (Agrana, Vienna, Austria) was added and dissolved by stirring (400 rpm) at room temperature for 10 min. The solution was lyophilized. Lyophilizate was mixed into concentrate feed at an inclusion rate of 2%. The final concentration of ZEN in feed was aimed to be 10 mg/kg and was verified using HPLC-MS/MS analysis as described below. For production of ZEN-contaminated, ZenA-supplemented concentrate, a zearalenone hydrolase ZenA preparation (ZENzyme®; EC 3.1.1.-; BIOMIN Holding GmbH, Getzersdorf, Austria) was mixed into ZEN-contaminated concentrate to achieve an activity of 128 U/kg feed. Same as in the in vitro trial, 1 U of ZenA was defined as the enzyme activity that hydrolyzes 1 μmol ZEN per minute from 15.71 µM ZEN in Teorell Stenhagen buffer adjusted to pH 7.5 containing 0.1 mg/mL bovine serum albumin at 37 °C.
On days 1 and 3 of the trial (ZEN and ZEN+ZenA treatment, respectively), ruminal digesta samples were taken from reticulum, ventral sac and dorsal mat layer (Figure 3) immediately before concentrate feeding (0 h), as well as 15 min, 1 h, 2 h, 4 h, 7 h and 10 h after concentrate feeding (Table 6). On days 2 and 4 of the trial (washout days), ruminal digesta samples were taken immediately before first concentrate feeding (0 h), as well as 10 h after first concentrate feeding (Table 6). Ruminal digesta samples (10 mL) were taken via a rumen fistula from reticulum and ventral sac (10 cm above the bottom of the rumen) using a pump as described previously. Samples were taken from the dorsal mat layer 20 cm below the gas phase and rumen fluid was obtained by manually squeezing the samples as described previously. Samples were mixed 1:2 with acetonitrile by vortexing. […]

[2] = Feeding trial in rumen-fistulated dairy cows: ZEN and ZEN metabolites in feces; type: in vivo, Holstein Friesian cows; conditions: feces
Source text: as §1, §2
On days 1 and 3 of the experiment, feces samples were taken from the rectum immediately before concentrate feeding (0 h), as well as 10 h after concentrate feeding (Table 6) and stored at −20 °C. Aliquots (500 mg) of thoroughly homogenized feces samples were extracted for HPLC-MS/MS analysis according to the method described by Binder and coworkers.
HPLC-MS/MS analysis of ZEN, α-ZEL, β-ZEL, HZEN and DHZEN in rumen fluid and feces was performed as described for the in vitro rumen fermentation experiment (see section “In Vitro Rumen Fermentation Experiment”, subsection “Analysis of ZEN and its Metabolites”), with the following modifications. Chromatographic separation was performed with a flow rate of 0.6 mL/min, a duration of 4 min and an injection volume was 1 µL. The gradient started at 30% B which was held for 0.3 min. Subsequently, the proportion of B was increased to 80% from 0.3 to 2 min, and increased to 100% from 2 to 2.1 min. […] LODs for ZEN, α-ZEL, β-ZEL, HZEN and DHZEN in rumen fluid were 2.83 nmol/L (0.9 µg/L), 2.81 nmol/L (0.9 µg/L), 2.81 nmol/L (0.9 µg/L), 2.68 nmol/L (0.9 µg/L) and 10.27 nmol/L (3 µg/L), respectively. LOQs for ZEN, α-ZEL, β-ZEL, HZEN and DHZEN in rumen fluid were 9.43 nmol/L (3 µg/L), 9.37 nmol/L (3 µg/L), 9.37 nmol/L (3 µg/L), 8.93 nmol/L (3 µg/L) and 30.81 nmol/L (9 µg/L), respectively. LODs for ZEN, α-ZEL, β-ZEL, HZEN and DHZEN in feces were 0.03 nmol/g (8.4 ng/g), 0.03 nmol/g (8.4 ng/g), 0.03 nmol/g (8.4 ng/g), 0.03 nmol/g (8.4 ng/g) and 0.10 nmol/g (28 ng/g), respectively. LOQs for ZEN, α-ZEL, β-ZEL, HZEN and DHZEN in feces were 0.09 nmol/g (28 ng/g), 0.09 nmol/g (28 ng/g), 0.09 nmol/g (28 ng/g), 0.08 nmol/g (28 ng/g) and 0.29 nmol/g (84 ng/g), respectively.

[3] = dorsal mat layer, ZEN treatment
[4] = ZEN treatment, 15 min after feeding, from median of 3 locations
[5] = reticulum and ventral sac, ZEN treatment
[6] = ZEN+ZenA treatment, 0 h (48 h after ZEN treatment)

| Structure (SMILES) | Estrogenic potency relative to ZEN (estrogen receptors) [times] | Low concentrations still detected at (time after concentrate feeding) [1, 3] [h] | Traces still detected at (time after administration of ZEN-contaminated concentrate) ([1]; dorsal mat layer) [h] | Percentage of concentration relative to the sum of ZEN and ZEN metabolite concentrations [1, 4] | Percentage of concentration relative to the sum of ZEN and ZEN metabolite concentrations ([1]; ZEN treatment, 1 h) [%] | Percentage of concentration relative to the sum of ZEN and ZEN metabolite concentrations ([1]; ZEN treatment, 4 h) | Percentage of concentration relative to the sum of ZEN and ZEN metabolite concentrations ([1]; ZEN treatment, 7 h) | Percentage of concentration relative to the sum of ZEN and ZEN metabolite concentrations ([1]; ZEN treatment, 10 h) [%] | Percentage of concentration relative to the sum of ZEN and ZEN metabolite concentrations ([1]; ZEN treatment, 24 h) [%] | Percentage of concentration relative to the sum of ZEN and ZEN metabolite concentrations ([1]; ZEN+ZenA treatment, 15 min) | Percentage of concentration relative to the sum of ZEN and ZEN metabolite concentrations ([1]; ZEN+ZenA treatment, 1 h) | Percentage of concentration relative to the sum of ZEN and ZEN metabolite concentrations ([1]; ZEN+ZenA treatment, 4 h) | Percentage of concentration relative to the sum of ZEN and ZEN metabolite concentrations ([1]; ZEN+ZenA treatment, 7 h) | Percentage of concentration relative to the sum of ZEN and ZEN metabolite concentrations ([1]; ZEN+ZenA treatment, 10 h) | Detected up until (time after concentrate feeding) [1, 5] [h] | Time to elimination ([1]; ZEN treatment) [h] | Percentage of concentration relative to the sum of ZEN and ZEN metabolite concentrations ([2]; ZEN treatment, 10 h) [%] | Percentage of concentration relative to the sum of ZEN and ZEN metabolite concentrations [2, 6] [%] | Percentage of concentration relative to the sum of ZEN and ZEN metabolite concentrations ([2]; ZEN+ZenA treatment, 10 h) | further results |
| --- | --- | --- | --- | --- | --- | --- | --- | --- | --- | --- | --- | --- | --- | --- | --- | --- | --- | --- | --- | --- |
| C[C@H]1CCC[C@H](O)CCC/C=C/c2cc(O)cc(O)c2C(=O)O1 [α-ZEL, α-zearalenol] | 60 | 34 | 48 | 0.0 (traces) % | 7.6 | 15.9% | 21.3% | 25.6 | 49.8 | 0.0 (traces) % | 0.0% | 0.0% | 0.0% | 0.0 (traces) % | 24 | ≤ 34 | 10.9 | 15.5 | 9.0% | First detected (time after concentrate feeding) [1, 3]: 1 h; First detected (time after concentrate feeding) [1, 5]: 0.25 h; Detection in rumen fluid ([1]; ventral sac, ZEN+ZenA treatment): not detected |
| C[C@H]1CCC[C@@H](O)CCC/C=C/c2cc(O)cc(O)c2C(=O)O1 [β-ZEL, β-zearalenol] | 0.2 |  |  | 0.0 (traces) % | 7.6 | 0.0 (traces) % | 0.0 (traces) % | 0.0 | 0.0 | 0.0% | 0.0% | 0.0% | 0.0% | 0.0% |  | ≤ 34 | 78.1 | 69.0 | 59.1% | Detection in rumen fluid ([1]; any reticulorumen location, ZEN+ZenA treatment): not detected; Period of detection at low concentrations [1, 3]: 1 to 7 h; Time of detection at low concentrations ([1]; ventral sac, ZEN treatment): 1 h |
| C[C@H]1CCCC(=O)CCC/C=C/c2cc(O)cc(O)c2C(=O)O1 [ZEN, zearalenone] |  | 34 | 48 | 100.0% | 84.8 | 84.1% | 78.7% | 74.4 | 50.2 | 5.9% | 0.0 (traces) % | 0.0 (traces) % | 0.0 (traces) % | 0.0 (traces) % | 24 | ≤ 34 | 11.0 | 15.6 | 0.0 (traces) % | Tmax [1, 3]: 1 h; Tmax ([1]; reticulum, ZEN treatment (5 mg ZEN oral)): 0.25 h; Tmax ([1]; ventral sac, ZEN treatment): 1 h |
